# Assay results reported in article PMC10250785, “Aromatic oligoesters as novel helix mimetic scaffolds” (Bioorganic & Medicinal Chemistry, 2023).
# Columns and labels:
# [1] = Aqueous stability of dimers in buffered pH solutions (TLC, LCMS/HPLC UV); assay type: physicochemical; settings: r.t.; for remaining at 168 h, 5 mg/mL: bicarbonate buffer pH 12.5 / acetonitrile (1:1), pH 12.5 (bicarbonate) buffer, 50% MeCN: buffer, 5 mg/mL dimer, after 7 days, from HPLC UV traces
# Experimental: Human serum pH is tightly regulated around 7.4, with intracellular pH controlled between pH 6.0–7.2, and gastric pH between 1.4–3.5.[37] […] Given the prevalence of ester linkages in pro-drug structures[38] and the facile hydrolysis of esters in aqueous media, the stability of our scaffold was a concern. We therefore investigated the stability of dimers 25 and 29 over extended periods of time in aqueous solution from pH2.5–12.5. To monitor dimer stability over time, 10 mM pH buffer solutions of: 2.5(acetate), 5.0(acetate), 7.4 (phosphate-buffered saline), 10.0 (bicarbonate), and 12.5 (bicarbonate) were selected, to obtain a pH range similar to those present within the human body. Since both dimers are insoluble in water, they were firstly dissolved in acetonitrile, before addition to the buffered solutions to form a 5 mg/mL dimer solution (50% MeCN: buffer). Degradation was monitored via TLC over time, and the final solution composition was determined by LCMS after 7 days (Fig 3 and Figure S3).
# Fig. 3 Dimers 25 and 29 were incubated for 7 days in a range of buffered pH solutions and % dimer remaining measured by integration of UV peaks from an HPLC Diode array trace.
# To pre-prepared 100 mM pH buffer solutions (1.00 mL), including pH 2.5, 5.0, 7.4, 10.0 and 12.5 (Table 2), was added the dimer (10 mg/mL in MeCN) at r.t, forming a final solution with dimer concentration 5 mg/mL. The mixture was stirred at r.t. for 7 days and monitored via TLC and LCMS (50% MeCN) to follow ester bond degradation.
melting point [°C],"remaining at 168 h, 5 mg/mL [1] [%]","time before ester hydrolysis occurs ([1]; pH 12.5, 50% MeCN: buffer) [days]",SMILES
67 to 68,,,"C=CCOc1ccc(C(=O)OC)cc1O [Compound 1, Methyl 4-(allyloxy)-3-hydroxybenzoate]"
,6,> 5,"C=CCOc1ccc(C(=O)Oc2ccc(C(=O)OC)cc2OC(C)C)cc1OC(C)C [Compound 25, 2-isopropoxy-4-(methoxycarbonyl)phenyl 4-(allyloxy)-3-isopropoxybenzoate]"
,49,,"COC(=O)c1ccc(OC(=O)c2ccc(O)c(OC)c2)c(OC)c1 [Compound 29, 2-methyoxy-4-(methoxycarbonyl)phenyl 4-hydroxy-3-methoxybenzoate]"
